According to US8835433B2, “Optically pure diastereomers of 10-Propargyl-10-deazaaminopterin and methods of using same for the treatment of cancer” (Allos Therapeutics, Inc., priority 2010, dated 2014):

Key:
[1] = Pharmacokinetics in rat (PDX-T-07034-R); format: in vivo; conditions: plasma, 5 mg/kg; for half-life: read-out: t1/2 term
Experimental: (§1) Bioanalytical methods were developed and validated for quantitation of the 2 pralatrexate C10 diastereomers (PDX-10a and PDX-10b) in human, rat and dog plasma and urine. The basic bioanalytical method involves extraction of PDX-10a and PDX-10b from the matrix utilizing C18 solid-phase extraction (SPE) cartridges followed by derivatization (methylation with acetyl chloride) of the diastereomers for separation detection. The derivatized extracts are injected on a chiral high-performance liquid chromatography (HPLC) column for quantitation of each diastereomer by liquid chromatography-tandem mass spectrometry (LC/MS/MS). The lower limit of quantitation (LLOQ) for both diastereomers in plasma and urine matrices was 0.5 ng/mL. […]

[2] = tested on: SKBR-3 (breast cancer) human tumor cell line; assay: MTS growth inhibition assay, SKBR-3; format: cell-based; conditions: SK-BR-3, SK-BR3 (breast), 3 h treatment, 72 h recovery
Experimental: (§2) The agents PDX, PDX-10a, PDX-10b, were evaluated for growth inhibitory activity against, MDA-MB-435, SKBR-3 and NCI-H460 human tumor cell lines. Growth inhibition was measured by MTS assay following three hours of continuous treatment and a seventy-two hour recovery incubation. The purpose of these studies was to determine the cytotoxic activity of the compounds in the tumor cell lines studies studied.
Materials and Methods. Preparation of PDX-10a and PDX-10b was performed as discussed in Examples 1-2. The PDX compounds were diluted in dimethylsulfoxide (DMSO) at a concentration of 20 mM. From this solution a stock solution of 2 mM was made by dilution with phosphate-buffered saline (PBS). This 2 mM stock solution in 10% DMSO/90% PBS was used to make 2× concentrations of the titration series in cell growth medium which was added to the cell cultures in a 1:1 ratio to make 1× concentrations. Cell lines—The human tumor cell lines: MDA-MB-435 (melanoma), SKBR-3 (breast cancer) and NCI-H460 (lung cancer) were cultured in RPMI medium (RPMI; Nova Tech, Grand Island, N.Y.) containing ten percent dialyzed fetal bovine serum (FBS; Nova Tech). […]
Single Agent Pulse Studies—Treatment with test agents or standard agents (controls) was initiated 24 hours after plating cells (Day 1). […] Following incubation, the viable cell number was quantified by the MTS assay described below. […]
MTS Assay—Cell viability was determined using the MTS assay. […] Formazan production was quantified by spectrophotometric measurement at 490 nm and is proportional to viable cell number. […] Absorbance (OD) values were measured using a Dynex HD microplate reader at a single wavelength of 490 nm.
(§3) Data Analysis—Data from each experiment was collected and expressed as OD490 versus the log10 of the test agent concentration. […]

[3] = tested on: tumor xenotransplant; assay: In vivo xenograft models with solid tumors and lymphomas; conditions: nude female mice, IP injection; some / other explants; Example 6
Experimental: Nude female mice are inoculated subcutaneously in the right flank with appropriate tumor cells as discussed in Example 5 to establish the xenotransplant. Tumor volume and body weights are monitored twice a week. Once the established tumor reaches 75-150 mm^3 the mice are randomized to a treatment group, either control, racemic PDX, PDX-10a, or PDX-10b. Treatments are administered by IP injection. Phosphate buffered saline is administered as control vehicles.

[4] = tested on: cancer cell lines; assay: In vitro cytotoxicity in additional solid and heme cancer cell lines; format: cell-based; conditions: some / other cell lines (T-cell lymphoma, multiple myeloma, others); Example 5
Experimental: Additional cancer cell lines can be tested in accordance with the methods outlined in Example 3. Cancer cell lines for T-cell lymphoma, multiple myeloma, hematologic malignancies, head and neck cancer, cancer of the gastrointestinal tract, ovarian cancer, and osteosarcoma are tested with PDX-10a and PDX-10b.

[5] = Population pharmacokinetics in cancer patients after racemic PDX; conditions: 3-compartment model, 154 cancer patients, IV racemic PDX
Experimental: Population (POP) pharmacokinetic (PK) parameters and effects of covariate factors (COV) for PDX-10a and PDX-10b after administration of racemic PDX in cancer patients were analyzed. POPPK data were pooled from 3 studies: 1) a phase 1 study in non-small lung cancer patients with intravenous (IV) doses of 150-325 mg/m^2, 2) a phase 1 study in advanced cancer patients with IV doses of 80-140 mg/m^2 plus a taxane, and 3) a phase 2 study in patients with relapsed or refractory PTCL at a dose of 30 mg/m^2/week IV. POP PK data for each diastereomer were analyzed using nonlinear mixed effects modeling with first-order conditional estimation. Model qualification included non-parametric bootstrap and predictive checks. Results: The POP PK database was comprised of 154 patients (94 males & 60 females, ages 21-85 years, weights 42.9-158 kg), contributing 1176 PDX-10a and 1173 PDX-10b plasma concentrations.

[6] = Pharmacokinetics in dog (PDX-T-07054-D); format: in vivo; conditions: for clearance / Vd / half-life: dog, plasma, 0.7 mg/kg; for half-life: read-out: t1/2 term
Experimental: as §1

[7] = tested on: MDA-MB-435 (melanoma) human tumor cell line; assay: MTS growth inhibition assay, MDA-MB-435; format: cell-based; conditions: 3 h treatment, 72 h recovery
Experimental: as §2
Materials and Methods. Preparation of PDX-10a and PDX-10b was performed as discussed in Examples 1-2. The PDX compounds were diluted in dimethylsulfoxide (DMSO) at a concentration of 20 mM. From this solution a stock solution of 2 mM was made by dilution with phosphate-buffered saline (PBS). This 2 mM stock solution in 10% DMSO/90% PBS was used to make 2× concentrations of the titration series in cell growth medium which was added to the cell cultures in a 1:1 ratio to make 1× concentrations. Cell lines—The human tumor cell lines: MDA-MB-435 (melanoma), SKBR-3 (breast cancer) and NCI-H460 (lung cancer) were cultured in RPMI medium (RPMI; Nova Tech, Grand Island, N.Y.) containing ten percent dialyzed fetal bovine serum (FBS; Nova Tech). Once cells reached seventy percent confluency, they were trypsinized and resuspended in an alternate media (RPMI containing five percent dialyzed FBS (Hyclone, Logan, Utah). One day prior to treatment (Day 0), cultures were suspended at a concentration of 1−7.5×10^4 cell/ml and 100 μl aliquots were plated into each well of a 96-well microtiter plate at a final concentration of 1×10^3-7.5×10^3 cells/well. Cells were incubated for 24 hours at 37° C. prior to exposure with agents.
Test Agents—racemic PDX, and individual diastereomers PDX-10a and PDX-10b were prepared as described above. Cells were treated 24 hours after plating (Day 1) with vehicle (media) alone or the above test agents for three hours at concentrations between 3 μM and 10 μM.
Single Agent Pulse Studies—Treatment with test agents or standard agents (controls) was initiated 24 hours after plating cells (Day 1). Cells were incubated at 37° C. with each of the test agents or a “chemococktail” (positive control) consisting of 215 μM Etoposide, 20 μM Taxol, 38.5 nM Velcade at final concentration for three hours. Following treatment, drug was removed, growth media added, and cells incubated at 37° C. for 72 hours. Following incubation, the viable cell number was quantified by the MTS assay described below. Experiments were repeated twice at the same concentrations. Results from these studies were used to calculate an IC50 value (concentration of drug that inhibits cell growth by 50% of the vehicle) for each compound. IC50 values were generated with Prizm software.
MTS Assay—Cell viability was determined using the MTS assay. This colorimetric procedure measures conversion of the MTS reagent (a tetrazolium salt) to formazan by living cells. Formazan production was quantified by spectrophotometric measurement at 490 nm and is proportional to viable cell number. For these studies, cells were cultured and treated as listed above. At the end of the treatment, 20 μl MTS tetrazolium (1.9 mg/ml in PBS, pH 6.0) was added to the cells for 1 hour at 37° C. Absorbance (OD) values were measured using a Dynex HD microplate reader at a single wavelength of 490 nm.
as §3

[8] = both sexes, Day 1, 5 mg/kg, range of the mean for males and females and for PDX-10a and PDX-10b, read-out: CLtot
[9] = both sexes, Day 1, 5 mg/kg, range of the mean for males and females and for PDX-10a and PDX-10b, read-out: Vdss
[10] = both sexes, Day 1, 5 mg/kg, range of the mean for males and females and for PDX-10a and PDX-10b
[11] = both sexes, Day 1, calculated using average BW 0.35 kg, read-out: Vdss relative to BW
[12] = both sexes, Day 85, 5 mg/kg, range of the mean for males and females and for PDX-10a and PDX-10b, read-out: CLtot
[13] = both sexes, Day 85, 5 mg/kg, range of the mean for males and females and for PDX-10a and PDX-10b, read-out: Vdss
[14] = both sexes, Day 85, 5 mg/kg, range of the mean for males and females and for PDX-10a and PDX-10b
[15] = Day 1, calculated using average BW 0.35 kg, read-out: CLtot relative to BW
[16] = both sexes, Day 1, 0.7 mg/kg, range of the mean for males and females and for PDX-10a and PDX-10b, read-out: CLtot
[17] = both sexes, Day 1, 0.7 mg/kg, range of the mean for males and females and for PDX-10a and PDX-10b, read-out: Vdss
[18] = both sexes, Day 1, 0.7 mg/kg, range of the mean for males and females and for PDX-10a and PDX-10b
[19] = both sexes, Day 1, calculated using average BW 8.5 kg, read-out: Vdss relative to BW
[20] = both sexes, Day 281, 0.7 mg/kg, range of the mean for males and females and for PDX-10a and PDX-10b, read-out: CLtot
[21] = both sexes, Day 281, 0.7 mg/kg, range of the mean for males and females and for PDX-10a and PDX-10b, read-out: Vdss
[22] = both sexes, Day 281, 0.7 mg/kg, range of the mean for males and females and for PDX-10a and PDX-10b
[23] = Day 1, calculated using average BW 8.5 kg, read-out: CLtot relative to BW
[24] = Homo sapiens, MDA-MB-435, MDA-MB-435 (melanoma)

Row | clearance [1, 8] [mL/min] | Vd [1, 9] [L] | half-life [1, 10] [h] | Vd [1, 11] [L/kg] | clearance [1, 12] [mL/min] | Vd [1, 13] [L] | half-life [1, 14] [h] | clearance [1, 15] [mL/min/kg] | IC50 [2] [µM] | 1st inter-CMT CL, POP PK parameter estimate [5] [L/h] | 2nd inter-CMT CL, POP PK parameter estimate [5] [L/h] | clearance (CL), POP PK parameter estimate [5] [L/h] | volume for CMT 1, POP PK parameter estimate [5] [L] | volume for CMT 2, POP PK parameter estimate [5] [L] | volume for CMT 3, POP PK parameter estimate [5] [L] | clearance [6, 16] [mL/min] | Vd [6, 17] [L] | half-life [6, 18] [h] | SMILES | xenograft activity relative to racemate and other diastereomer [3] | cytotoxic activity relative to racemate and other diastereomer [4] | further results
1 | 2.9 to 4 | 0.07 to 0.89 | 1 to 20 | 0.2 to 2.5 | 3.4 to 3.9 | 0.15 to 0.18 | 1 to 6 | ~10 | 0.0119 | 6.97 | 1.43 | 35.0 | 11.0 | 9.71 | 50.6 | 34 to 81 | 8 to 16 | 4.4 to 4.9 | C#CC[C@@H](Cc1cnc2nc(N)nc(N)c2n1)c1ccc(C(=O)N[C@@H](CCC(=O)O)C(=O)O)cc1 (single isomer, unassigned) [PDX-10a] | increased activity relative to racemic PDX and/or PDX-10b | increased activity relative to racemic PDX and/or PDX-10b | Vd [6, 19]: 0.9 to 1.9 L/kg; clearance [6, 20]: 58 to 95 mL/min; Vd [6, 21]: 15 to 24 L; half-life [6, 22]: 4.7 to 5.5 h; clearance [6, 23]: 4 to 10 mL/min/kg; IC50 [7, 24]: 0.1 µM
2 | 2.9 to 4 | 0.07 to 0.89 | 1 to 20 | 0.2 to 2.5 | 3.4 to 3.9 | 0.15 to 0.18 | 1 to 6 | ~10 | 0.0261 | 5.53 | 0.601 | 17.2 | 8.89 | 6.79 | 12.65 | 34 to 81 | 8 to 16 | 4.4 to 4.9 | C#CC[C@H](Cc1cnc2nc(N)nc(N)c2n1)c1ccc(C(=O)N[C@@H](CCC(=O)O)C(=O)O)cc1 (single isomer, unassigned) [PDX-10b] | increased activity relative to racemic PDX and/or PDX-10a | increased activity relative to racemic PDX and/or PDX-10a | Vd [6, 19]: 0.9 to 1.9 L/kg; clearance [6, 20]: 58 to 95 mL/min; Vd [6, 21]: 15 to 24 L; half-life [6, 22]: 4.7 to 5.5 h; clearance [6, 23]: 4 to 10 mL/min/kg; higher clearance of PDX-10b compared with PDX-10a ([6]; dogs): 2 fold; IC50 [7, 24]: 0.121 µM; IC50 ([7]; MDA-MB-435 (melanoma)): 0.121 µM
